This note sets out measurements from publication PMC6874667, “A conserved odorant binding protein is required for essential amino acid detection in Drosophila” (Communications Biology, 2019).

Each structure is given as a SMILES string. Where a name gives a salt, the structure may show the parent alone.

A word on the inhibition: it is the drop in the measured response relative to a control, in per cent. The term Kd denotes the equilibrium constant for the complex coming apart.

The target in the first test is T1, OBP19b (Drosophila melanogaster, UniProt Q9VR95).
T1 construct: mature OBP19b without its native signal peptide
T1 sequence (Q9VR95 34-163): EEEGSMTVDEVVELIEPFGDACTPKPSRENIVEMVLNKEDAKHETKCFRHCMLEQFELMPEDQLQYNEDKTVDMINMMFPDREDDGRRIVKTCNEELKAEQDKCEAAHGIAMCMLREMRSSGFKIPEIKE
Description: biochemical. The note with it: NPN displacement; buffer blank 13.4 % not subtracted. More on the design: competitive NPN probe displacement from recombinant OBP19b, fluorescence 340/415 nm, single concentration, per cent fluorescence displacement. Here is the method:
To measure the affinity of OBP19b to ligands, a competitive screening assay was performed at 23 °C using a 96-well microplate format and a Victor3 V microplate reader (PerkinElmer Life Sciences) with 25 and 5 nm slits for excitation and emission, respectively. The excitation wavelength was 340 nm, and the fluorescence emission intensity was recorded at 415 nm. First, a wide screening array involving various ligand compounds was performed. Each well contained 200 µL of 2 µM OBP19b with 4 µM NPN dissolved in 50 mM sodium phosphate buffer at pH 7.5. Fatty acids and bitter compounds were tested in the µM range, whereas sugars, amino acids, vitamins, acids, amines, and isothiocyanate compounds were tested in the mM range. All tested compounds were dissolved in 10% methanol except amino acids, which were dissolved in 50 mM sodium phosphate buffer at pH 7.5. Based on the results of the first screen, the 20 L-amino acids, certain D-amino acids and three nonproteinogenic amino acids were tested by adding 100 µL of a 30 mM ligand stock solution to the microplate wells to obtain a final concentration of 15 mM, and then the solution was mixed. Significant differences using one-way analysis of variance (ANOVA) followed by Dunnett’s test were observed compared to the buffer (***p < 0.001; **p < 0.01). The competitive-binding curves were identified by titration of OBP19b/NPN complex with aliquots of 50 mM ligand to final concentration ranging from 0 to 20 mM. The dissociation constants (Kdapp) of each compound were calculated according to the corresponding IC50 values (the concentration of ligands required to halve the initial fluorescence value of NPN) using the following equation: Kdapp = [IC50]/(1 + […]/KNPN), where [NPN] is the free concentration of NPN. The reported Kdapp values are the average of three measurements performed on three independently experiments.  Fig. 2 Binding properties of OBP19b with a competitive fluorescent assay. The fluorescent displacement of the fluorescent probe NPN by various taste compounds was evaluated by adding aliquots of 50 mM ligand (dissolved in 50 mM sodium phosphate buffer at pH 7.5) to final concentration ranging from 0 to 20 mM. a Fatty acid esters and bitter compounds were tested at a final concentration of 40 µM. b Amino acids, vitamins, acids, amines, trigeminal (isothiocyanate), and sugars compounds were tested at a 15 mM final concentration. c Fluorescent displacement of 20 L-amino acids, including L-phenylalanine (L-Phe: magenta color), L-glutamine (L-Gln: green) and L-alanine (L-Ala: cyan); three nonproteinogenic amino acids L-ornithine (L-Orn), L-canavanine (L-Can), L-citrulline (L-Cit); and three D-amino acids (D-phenylalanine: orange, D-glutamine: blue, and D-alanine: gray). Dots indicate essential amino acids. Statistical differences were determined using one-way ANOVA followed by Dunnett’s test (***p < 0.001; **p < 0.01). d Competitive-binding curves of L-Phe and L-Gln (showing the lowest Kdapp), L-Ala (negative control), and their three corresponding D-isomers. Data values represent the mean ± SEM.
With `C[C@@H](N)C(=O)O` [D-alanine], the inhibition at 15000 µM was found to be 23.5%. Still for that read-out and setting: to `NC(=O)CC[C@@H](N)C(=O)O` [D-glutamine] belongs 22.6%; to `N[C@H](Cc1ccccc1)C(=O)O` [D-phenylalanine], 28.3%. On the same count and under the same terms, for `NCC(=O)O` [Glycine] the value was 31.6%; for `NC(=O)CC[C@H](N)C(=O)O` [L-Gln, L-glutamine], 40.7%. Still for that read-out and setting: to `N[C@@H](Cc1ccccc1)C(=O)O` [L-Phe, L-phenylalanine] belongs 44%. With `C[C@H](N)C(=O)O` [L-alanine], the inhibition at 15000 µM came out at 27.2%.

For `N=C(N)NCCC[C@H](N)C(=O)O` [L-arginine], the inhibition at 15000 µM is 40.5%. Still for that read-out and setting: for `NC(=O)C[C@H](N)C(=O)O` [L-asparagine] the value was 41.2%; for `N[C@@H](CC(=O)O)C(=O)O` [L-aspartic acid], 43.4%. Still for that read-out and setting: for `NC(N)=NOCC[C@H](N)C(=O)O` [L-canavanine sulfate salt] the value was 22.2%.

Regarding `N[C@@H](CS)C(=O)O` [L-cysteine], the inhibition at 15000 µM is -14.4%.

Consider `N[C@@H](CCC(=O)O)C(=O)O` [L-glutamic acid], for which the inhibition at 15000 µM is -0.061%. For `N[C@@H](Cc1c[nH]cn1)C(=O)O` [L-histidine], the inhibition at 15000 µM came to 7.44%. Still for that read-out and setting: to `CC[C@H](C)[C@H](N)C(=O)O` [L-isoleucine] belongs 22.8%; to `CC(C)C[C@H](N)C(=O)O` [L-leucine], 22.8%; to `NCCCC[C@H](N)C(=O)O` [L-lysine], 20.2%. With `CSCC[C@H](N)C(=O)O` [L-methionine], the inhibition at 15000 µM came out at 37.3%. In the case of `NCCC[C@H](N)C(=O)O` [L-ornithine dihydro chloride], the inhibition at 15000 µM came to 25.1%. On the same count and under the same terms, for `O=C(O)[C@@H]1CCCN1` [L-proline] the value was 20.1%; for `N[C@@H](CO)C(=O)O` [L-serine], 46.2%; for `C[C@@H](O)[C@H](N)C(=O)O` [L-threonine], 17.8%. Still for that read-out and setting: for `N[C@@H](Cc1c[nH]c2ccccc12)C(=O)O` [L-tryptophan] the value was 36.2%; for `N[C@@H](Cc1ccc(O)cc1)C(=O)O` [L-tyrosine], -122%; for `CC(C)[C@H](N)C(=O)O` [L-valine], 16.2%.

In a further test the target is T1, OBP19b. The experiment in a line: direct fluorescence titration with fluorescent probe. It is filed as binding.
Details: not given
For `c1ccc(Nc2cccc3ccccc23)cc1` [NPN, N-phenyl-1-naphthylamine], binding was put at a Kd of 4.1 ± 0.9 µM.

A further test deals with T1, OBP19b. The experiment in a line: competitive NPN fluorescence displacement, single dose […]. Format: binding.
Details: not given
Turning to `COc1ccc2cc3[n+](cc2c1OC)CCc1cc2c(cc1-3)OCO2` [berberine], the “competitive NPN fluorescence displacement, single dose 40 μM” value was “The highest level of fluorescence displacement was induced by papaverine, berberine, 2-phenylethyl isothiocyanate”. With `COc1ccc(Cc2nccc3cc(OC)c(OC)cc23)cc1OC` [papaverine], the “competitive NPN fluorescence displacement, single dose 40 μM” value is reported as “The highest level of fluorescence displacement was induced by papaverine, berberine, 2-phenylethyl isothiocyanate”.
